Source: patent US20240182407A1, “QUINOLINE COMPOUND SALT OR CRYSTAL FORM, PREPARATION METHOD THEREFOR, AND APPLICATION THEREOF” (Nanjing Zenshine Pharmaceuticals Co., Ltd., priority 2021, published 2024)
In brackets after ≈: the same amount, converted by molar mass.

Columns and labels:
[1] = Solubility in simulated gastrointestinal fluids (SGF, FeSSIF, FaSSIF) at 37° C.; assay type: physicochemical; conditions: for Solubility: 37° C.; for Solubility / pH of filtrate: listed as Sample 5; for solubility at 30 min / solubility at 2 h / solubility at 24 h: 37 °C, thermodynamic from solid
Method: The solubilities of Compound A and p-toluenesulfonate (Sample 5, crystal form I) in simulated gastrointestinal fluids (SGF, FeSSIF and FaSSIF) at 37° C. were tested.
About 7.5 mg of Compound A and p-toluenesulfonate were separately added to 1.5 mL of three biological vehicles to prepare suspensions. All the suspensions were placed in a shaker at 37° C. and shaken at 200 rpm for 24 h, and about 0.5 mL was sampled separately at 0.5 h, 2 h and 24 h for filtration. The obtained filtrates were subjected to HPLC analysis and pH measurement, and the filter cakes were respectively measured by XRPD.

[2] = tested on: WSU-DLCL-2; assay: Proliferation of lymphoma cell line in vitro, WSU-DLCL-2; assay type: cell-based; conditions: Homo sapiens, WSUDLCL2, read-out: absolute IC50 (AbsIC50), proliferation
[3] = biological target: T1, PI3Kγ (p110γ) (Homo sapiens, UniProt P48736); assay: ADP-Glo kinase inhibition, PI3Kγ; conditions: read-out: IC50 PI3Kγ Biochemical
T1 construct: purchased Invitrogen PR8641C
Method: In Example 7, the inhibitory effects of Sample 6 prepared in Example 6 above on kinases PI3Kα, PI3Kβ, PI3Kγ and PI3Kδ were tested.
The kinases used in the experiment were respectively purchased from: • PI3Kα (p110α/p85α), purchased from Invitrogen, under Cat. No. PV4788; • PI3Kβ (p110β), purchased from eurofins, under Cat. No. 14-603M; • PI3Kδ (p110δ/p85a), purchased from Invitrogen, under Cat. No. PV6452; and • PI3Kγ (p110γ), purchased from Invitrogen, under Cat. No. PR8641C. • Firstly, a 1× kinase buffer solution was prepared, which comprised: • 50 mM HEPES, pH 7.5 • 3 mM MgCl2 • 1 mM EGTA • 100 mM NaCl • 0.03% CHAPS • 2 mM DTT
On kinases PI3Kα, PI3Kβ and PI3Kγ, the final detection concentration of the compound was 10 μM. 100× concentration was prepared, i.e., 1000 μM. 90 μL of 100% DMSO was added to the second well in row A on a 96-well plate, 10 μL of a 10 mM compound solution was then added, and 3-fold serial dilution was made to obtain a total of 10 concentrations.
50 μL of 100% DMSO was transferred to two empty wells as Max well and Min well, respectively.
50 nL of the compound was transferred into a 384-well plate using ECHO550.
Preparation of 2× kinase solution: the kinase was added to a 1× kinase buffer to prepare a 2× enzyme solution. […]
Finally, the chemiluminescence values were read from Envision 2104 Multi-label Reader and subjected to curve fitting, and IC50 was calculated.

T1 sequence (P48736 whole entry): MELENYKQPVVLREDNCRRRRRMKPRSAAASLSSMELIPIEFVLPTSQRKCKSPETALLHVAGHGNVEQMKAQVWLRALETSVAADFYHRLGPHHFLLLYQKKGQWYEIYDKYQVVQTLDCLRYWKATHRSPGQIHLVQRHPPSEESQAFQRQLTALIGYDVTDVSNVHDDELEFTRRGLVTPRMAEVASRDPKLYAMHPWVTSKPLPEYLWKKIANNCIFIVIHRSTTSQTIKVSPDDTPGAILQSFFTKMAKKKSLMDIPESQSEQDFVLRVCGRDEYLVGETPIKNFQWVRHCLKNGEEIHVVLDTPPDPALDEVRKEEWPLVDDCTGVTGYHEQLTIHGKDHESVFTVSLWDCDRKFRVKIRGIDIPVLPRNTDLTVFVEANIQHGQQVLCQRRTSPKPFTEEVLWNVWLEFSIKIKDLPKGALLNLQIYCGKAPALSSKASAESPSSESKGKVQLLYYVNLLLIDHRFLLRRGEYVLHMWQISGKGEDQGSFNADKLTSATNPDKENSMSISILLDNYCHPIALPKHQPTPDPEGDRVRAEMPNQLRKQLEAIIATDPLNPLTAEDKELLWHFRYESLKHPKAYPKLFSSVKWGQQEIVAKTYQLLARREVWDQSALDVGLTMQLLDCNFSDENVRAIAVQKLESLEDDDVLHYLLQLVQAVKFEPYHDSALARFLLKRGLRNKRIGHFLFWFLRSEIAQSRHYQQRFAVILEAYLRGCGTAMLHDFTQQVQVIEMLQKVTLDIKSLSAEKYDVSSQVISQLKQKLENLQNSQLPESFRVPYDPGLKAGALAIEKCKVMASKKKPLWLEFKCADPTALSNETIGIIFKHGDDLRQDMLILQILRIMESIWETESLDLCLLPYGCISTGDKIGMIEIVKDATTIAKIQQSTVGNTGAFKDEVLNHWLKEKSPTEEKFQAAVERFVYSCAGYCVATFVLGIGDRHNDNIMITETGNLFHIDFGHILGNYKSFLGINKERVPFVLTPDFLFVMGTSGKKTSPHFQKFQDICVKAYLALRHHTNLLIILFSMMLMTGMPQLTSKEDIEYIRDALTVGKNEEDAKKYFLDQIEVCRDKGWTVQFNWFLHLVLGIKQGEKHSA

Q: For `C[C@H](Nc1nc(N)nc(N)c1C#N)c1cc2ccc(F)cc2nc1-c1ccccn1` [p-toluenesulfonate of Compound A], which Solubility ([1]; FaSSIF (pH 6.52), 30 min) is on record?
A: 0.57 mg/mL (≈ 1.42 mM)

Q: What about the Solubility ([1]; FaSSIF (pH 6.52), 2 h) of the same compound?
A: 0.56 mg/mL (≈ 1.4 mM)

Q: What about the Solubility ([1]; FaSSIF (pH 6.52), 24 h) of the same compound?
A: 0.55 mg/mL (≈ 1.37 mM)

Q: And the pH of filtrate ([1]; FaSSIF (pH 6.52), 0.5 h)?
A: 6.27

Q: And the pH of filtrate ([1]; FaSSIF (pH 6.52), 2 h)?
A: 6.10

Q: And the pH of filtrate ([1]; FaSSIF (pH 6.52), 24 h)?
A: 5.38

Q: What about the pH of filtrate ([1]; FeSSIF (pH 4.99), 0.5 h) of the same compound?
A: 4.81

Q: And the pH of filtrate ([1]; FeSSIF (pH 4.99), 2 h)?
A: 4.80

Q: What about the pH of filtrate ([1]; FeSSIF (pH 4.99), 24 h) of the same compound?
A: 4.69

Q: What about the solubility at 30 min ([1]; FeSSIF, pH 4.99, fessif, FeSSIF (pH 4.99), 30 min) of the same compound?
A: 1310 µg/mL (≈ 3.27 mM)

Q: And the solubility at 2 h ([1]; FeSSIF, pH 4.99, fessif, FeSSIF (pH 4.99), 2 h)?
A: 2740 µg/mL (≈ 6.84 mM)

Q: What about the solubility at 24 h ([1]; FeSSIF, pH 4.99, fessif, FeSSIF (pH 4.99), 24 h) of the same compound?
A: 3570 µg/mL (≈ 8.92 mM)

Q: And the pH of filtrate ([1]; SGF (pH 1.21), 0.5 h)?
A: 1.05

Q: And the pH of filtrate ([1]; SGF (pH 1.21), 2 h)?
A: 1.10

Q: What about the pH of filtrate ([1]; SGF (pH 1.21), 24 h) of the same compound?
A: 1.11

Q: And the solubility at 30 min ([1]; SGF, pH 1.21, simulated gastric fluid, SGF (pH 1.21), 30 min)?
A: > 5440 µg/mL

Q: What about the solubility at 2 h ([1]; SGF, pH 1.21, simulated gastric fluid, SGF (pH 1.21), 2 h) of the same compound?
A: > 5400 µg/mL

Q: And the solubility at 24 h ([1]; SGF, pH 1.21, simulated gastric fluid, SGF (pH 1.21), 24 h)?
A: > 5350 µg/mL

Q: And the IC50 [2]?
A: < 100 nM

Q: What about the IC50 [3] of the same compound?
A: 4.8 nM
